# Test results as given in patent publication US9066518B2, “Heterocyclic compounds as pesticides” (Bayer CropScience AG, priority 2009, dated 2015).
# Read-outs that look alike come from different tables or passages of the source.
# Tests used:
# [1] = tested on: green peach aphid (Myzus persicae); experiment: Myzus test (spray treatment); type: in vivo; conditions: foliar, 144 h, read-out: activity (effect in %, aphids killed)
# Description: (§1) Solvents: 78 parts by weight of acetone
# • 1.5 parts by weight of dimethylformamide Emulsifier 0.5 part by weight of alkylaryl polyglycol ether
# To produce a suitable preparation of active compound, 1 part by weight of active compound is mixed with the stated amounts of solvents and emulsifier, and the concentrate is diluted with emulsifier-containing water to the desired concentration. Discs of leaves of Chinese cabbage (Brassica pekinensis) which are infested by all stages of the green peach aphid (Myzus persicae) are sprayed with an active compound preparation of the desired concentration.
# After 6 days, the effect in % is determined. 100% means that all aphids have been killed; 0% means that none of the aphids has been killed.
# [2] = logP determination (neutral / HCOOH); conditions: HCOOH (formic acid), logP (HCOOH), HCOOH
# [3] = tested on: larvae of the mustard beetle (Phaedon cochleariae); experiment: Phaedon test (spray treatment); type: in vivo; conditions: application rate 500 g/ha; after 7 days; Chinese cabbage leaf discs
# Excerpt: Solvents: 78 parts by weight of acetone • • 1.5 parts by weight of dimethylformamide Emulsifier: 0.5 part by weight of alkylaryl polyglycol ether […] Discs of leaves of Chinese cabbage (Brassica pekinensis) are sprayed with an active compound preparation of the desired concentration and, after drying, populated with larvae of the mustard beetle (Phaedon cochleariae).
# [4] = tested on: caterpillars of the armyworm (Spodoptera frugiperda); experiment: Spodoptera frugiperda test (spray treatment); type: in vivo; conditions: application rate 500 g/ha; after 7 days; maize leaf discs
# Description: as §1
# (§2) • 1.5 parts by weight of dimethylformamide Emulsifier: 0.5 part by weight of alkylaryl polyglycol ether
# To produce a suitable preparation of active compound, 1 part by weight of active compound is mixed with the stated amounts of solvents and emulsifier, and the concentrate is diluted with emulsifier-containing water to the desired concentration. Discs of maize leaves (Zea mays) are sprayed with an active compound preparation of the desired concentration and, after drying, populated with caterpillars of the armyworm (Spodoptera frugiperda).
# After 7 days, the effect in % is determined. 100% means that all caterpillars have been killed; 0% means that none of the caterpillars has been killed.
# [5] = tested on: greenhouse red spider mite (Tetranychus urticae); experiment: Tetranychus test; OP-resistant (spray treatment); type: in vivo; conditions: application rate 500 g/ha, after 6 days, bean leaf discs
# Description: as §1, §2
# To produce a suitable preparation of active compound, 1 part by weight of active compound is mixed with the stated amounts of solvents and emulsifier, and the concentrate is diluted with emulsifier-containing water to the desired concentration. Discs of bean leaves (Phaseolus vulgaris) which are infested by all stages of the greenhouse red spider mite (Tetranychus urticae) are sprayed with an active compound preparation of the desired concentration.
# After 6 days, the effect in % is determined. 100% means that all spider mites have been killed; 0% means that none of the spider mites has been killed.
# [6] = application rate 500 g/ha, after 6 days, Chinese cabbage leaf discs
chromatographic logP [2],Compound,logP (physchem),pest or weed control at 500 g/ha ([1]; in Brassica rapa),"activity (effect in %, beetle larvae killed) [3]","activity (effect in %, caterpillars killed) [4]","pest or weed control at 500 g/ha [1, 6]","activity (effect in %, spider mites killed) [5]"
–,"c1cncc(-n2cc(-c3cccc(-c4ncon4)n3)cn2)c1 [Example 5, 2-[1,2,4]Oxadiazol-3-yl-6-(1-pyridin-3-yl-1H-pyrazol-4-yl)pyridine]",1.54,100%,–,–,–,–
–,"c1cncc(-n2cc(-c3cccc(-c4nccnn4)n3)cn2)c1 [Example 7, 3-[6-(1-Pyridin-3-yl-1H-pyrazol-4-yl)pyridin-2-yl]-[1,2,4]triazine]",1.32,100%,–,–,–,–
2.1,Cn1c(C(F)(F)F)nn(-c2cccc(-c3cnn(-c4cccnc4)c3)n2)c1=O [Example 16],–,–,100%,100%,90%,–
2.38,FC(F)(F)c1ccc(-c2cnn(-c3cccnc3)c2)nc1 [Example 22],–,–,100%,–,100%,–
2.18,COC(=O)CN(C)c1cccc(-c2cnn(-c3cccnc3)c2)n1 [Example 32],–,–,–,100%,100%,–
1.17,c1cnc(-c2cccc(-c3cnn(-c4cncnc4)c3)n2)nc1 [Example 34],–,–,–,–,100%,90%
